Results reported in patent US11181533B2, “Diagnosing and treating Alzheimer's disease” (DIGNITY HEALTH, priority 2013, dated 2021).
Like-named read-outs stand apart in the source and are kept apart here. No end group written: not given here.

What was measured:
[1] = test system: Aβ induced cell death; assay: Protection against Aβ induced cell death; type: cell-based; settings: by enhancing mitochondrial function
[2] = test system: SAMP8 mice and APP transgenic mice; settings: intranasal administration, cited from earlier work

In the case of “Pituitary Adenylate Cyclase Activating Polypeptide (HSDGIFTDSYSRYRKQMAVKKYLAAVLGKRYKQRVKNK; ends and bridges not checked; UniProt P18509 132-169, looked up) [PACAP, small peptide with either 38 amino acids in full length form (PACAP-38), or 27 amino acids in short form (PACAP-27); neurotrophin]”, the “protection against Aβ induced cell death” value [1] is listed as “protects against Aβ induced cell death”, the Novel object recognition ([2]; APP transgenic mice) is listed as “enhances Novel object recognition” and the Novel object recognition ([2]; SAMP8 mice) is listed as “enhances Novel object recognition”.
